Reference: ChEMBL document CHEMBL1201862, “PubChem BioAssay data set” (2004)
Activity calls are given as the source filed them.

Legend:
[1] = biological target: 5-hydroxytryptamine receptor 5A (Homo sapiens, UniProt P47898); experiment: Counterscreen for agonists of OPRM1-OPRD1 heterodimerization: luminescence-based cell-based high throughput dose response assay to identify agonists of 5-hydroxytryptamine (serotonin) 5A receptor (HTR5A). [Related pubchem assays (depositor defined):AID504326, AID504355, AID504692, AID504904, AID504905]; assay type: functional
Sequence of 5-hydroxytryptamine receptor 5A (P47898 whole entry): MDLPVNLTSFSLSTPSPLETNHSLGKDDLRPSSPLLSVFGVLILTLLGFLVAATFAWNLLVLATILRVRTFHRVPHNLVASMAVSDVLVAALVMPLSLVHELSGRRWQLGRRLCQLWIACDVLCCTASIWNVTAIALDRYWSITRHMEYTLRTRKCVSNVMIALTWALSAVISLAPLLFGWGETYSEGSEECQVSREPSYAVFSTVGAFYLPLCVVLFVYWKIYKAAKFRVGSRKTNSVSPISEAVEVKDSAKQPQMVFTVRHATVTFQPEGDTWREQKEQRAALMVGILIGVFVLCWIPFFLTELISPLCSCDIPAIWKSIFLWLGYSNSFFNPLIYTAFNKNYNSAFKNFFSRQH

[2] = HEK293T cytotoxicity, dose response, cytotoxicity control for miR-122 modulator project, cell-based, inhibitor set, cherry-pick, set 2 (AID 720697); assay type: functional
[3] = biological target: Delta-type opioid receptor (Homo sapiens, UniProt P41143); experiment: Counterscreen for agonists of heterodimerization of the mu 1 (OPRM1) and delta 1 (OPRD1) opioid receptors: Luminescence-based cell-based high throughput dose response assay to identify agonists of OPRD1 homodimerization. [Related pubchem assays (depositor defined):AID504326, AID504355, AID504692, AID504904, AID504905]; assay type: functional
[4] = biological target: Mu-type opioid receptor (Homo sapiens, UniProt P35372); experiment: Counterscreen for agonists of heterodimerization of the mu 1 (OPRM1) and delta 1 (OPRD1) opioid receptors: Luminescence-based cell-based high throughput dose response assay to identify agonists of OPRM1 homodimerization.; assay type: functional;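 note: U2OS cells expressing OPRM1 and beta-arrestin as split beta-galactosidase partners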
Sequence of Mu-type opioid receptor (P35372 whole entry): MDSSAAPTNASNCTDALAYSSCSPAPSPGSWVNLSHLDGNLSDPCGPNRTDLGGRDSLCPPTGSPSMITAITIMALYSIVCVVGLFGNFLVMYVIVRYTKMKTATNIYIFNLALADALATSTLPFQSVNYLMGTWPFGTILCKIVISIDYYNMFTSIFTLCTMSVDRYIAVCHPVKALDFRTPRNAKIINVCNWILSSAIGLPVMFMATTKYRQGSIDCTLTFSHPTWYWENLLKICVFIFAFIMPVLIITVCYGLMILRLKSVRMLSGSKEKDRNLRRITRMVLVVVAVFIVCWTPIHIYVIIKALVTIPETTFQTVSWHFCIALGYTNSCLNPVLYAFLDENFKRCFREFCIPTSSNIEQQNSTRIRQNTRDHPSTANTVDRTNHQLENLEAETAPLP

[5] = HeLa cell cytotoxicity, dose response, cytotoxicity control for MgcRacGAP inhibitor project (AID 624300); assay type: functional
[6] = biological target: T1, Rac GTPase-activating protein 1 (Homo sapiens, UniProt Q9H0H5); experiment: MgcRacGAP GTPase-activating activity inhibitors, confirmation, biochemical, ADP Hunter fluorescence, primary and confirmatory (AID 624330); assay type: functional
T1 sequence (Q9H0H5 whole entry): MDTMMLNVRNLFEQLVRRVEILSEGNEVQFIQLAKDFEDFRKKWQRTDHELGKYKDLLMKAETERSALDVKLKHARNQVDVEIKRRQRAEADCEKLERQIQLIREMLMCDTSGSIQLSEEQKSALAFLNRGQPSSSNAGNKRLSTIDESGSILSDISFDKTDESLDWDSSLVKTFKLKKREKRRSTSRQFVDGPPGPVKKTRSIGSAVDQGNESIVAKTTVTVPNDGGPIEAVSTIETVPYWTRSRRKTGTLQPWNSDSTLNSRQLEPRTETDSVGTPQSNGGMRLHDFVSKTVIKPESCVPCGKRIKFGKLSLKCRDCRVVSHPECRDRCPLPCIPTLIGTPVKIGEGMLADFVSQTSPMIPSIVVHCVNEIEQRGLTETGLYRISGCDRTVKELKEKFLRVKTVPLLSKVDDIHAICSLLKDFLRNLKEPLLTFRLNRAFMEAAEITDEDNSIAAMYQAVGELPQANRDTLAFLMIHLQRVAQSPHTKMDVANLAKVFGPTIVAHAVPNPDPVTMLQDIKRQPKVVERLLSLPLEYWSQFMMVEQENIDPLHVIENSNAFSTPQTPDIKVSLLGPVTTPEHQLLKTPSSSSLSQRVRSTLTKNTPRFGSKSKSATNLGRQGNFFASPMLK

[7] = miR-122 activators in hepatoma reporter cells, dose response, cell-based, Huh7 psiCHECK-miR122, Renilla luciferase, cherry-picked (AID 651956); assay type: functional;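 note: huh7 hepatoma cells stably carrying a psiCHECK-2 miR-122 sensor plasmid; renilla luciferase signal reporting endogenous miR-122 activity after 48 h compound exposure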
[8] = Fluorescence-based cell-based high throughput dose response assay for inhibitors of the interaction of nucleotide-binding oligomerization domain containing 2 (NOD2) and the receptor-interacting serine-threonine kinase 2 (RIPK2).; assay type: functional; conditions: Homo sapiens
[9] = biological target: E3 ubiquitin-protein ligase UHRF1 (Homo sapiens, UniProt Q96T88); experiment: Counterscreen for inhibitors of 5-meCpG-binding domain protein 2 (MBD2): TRFRET-based biochemical high throughput dose response assay to identify inhibitors of binding of ubiquitin-like with PHD and ring finger domains 1 (UHRF1) to methylated oligonucleotide.
[10] = biological target: Beta Lactamase (Pseudomonas aeruginosa, UniProt Q932Y6); experiment: beta-lactamase reporter inhibitor potency, dose response, artefact control for NOD2-RIPK2 interaction inhibitor project, BLA reporter cells, FRET fluorescence (AID 651552); assay type: functional, cell-based
Sequence of Beta Lactamase (Q932Y6 whole entry): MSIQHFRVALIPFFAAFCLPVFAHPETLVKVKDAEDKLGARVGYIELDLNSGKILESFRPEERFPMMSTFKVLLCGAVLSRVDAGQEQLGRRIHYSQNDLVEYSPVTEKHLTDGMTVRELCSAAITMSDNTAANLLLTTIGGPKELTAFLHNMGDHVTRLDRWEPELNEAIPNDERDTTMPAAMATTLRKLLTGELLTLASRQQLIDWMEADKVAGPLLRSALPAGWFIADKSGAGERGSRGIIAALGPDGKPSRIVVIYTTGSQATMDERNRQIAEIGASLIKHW

[11] = biological target: Ubiquitin carboxyl-terminal hydrolase BAP1 (Homo sapiens, UniProt Q92560); experiment: BAP1 deubiquitinase inhibitors, dose response, biochemical (AID 714); assay type: functional
Sequence of Ubiquitin carboxyl-terminal hydrolase BAP1 (Q92560 whole entry): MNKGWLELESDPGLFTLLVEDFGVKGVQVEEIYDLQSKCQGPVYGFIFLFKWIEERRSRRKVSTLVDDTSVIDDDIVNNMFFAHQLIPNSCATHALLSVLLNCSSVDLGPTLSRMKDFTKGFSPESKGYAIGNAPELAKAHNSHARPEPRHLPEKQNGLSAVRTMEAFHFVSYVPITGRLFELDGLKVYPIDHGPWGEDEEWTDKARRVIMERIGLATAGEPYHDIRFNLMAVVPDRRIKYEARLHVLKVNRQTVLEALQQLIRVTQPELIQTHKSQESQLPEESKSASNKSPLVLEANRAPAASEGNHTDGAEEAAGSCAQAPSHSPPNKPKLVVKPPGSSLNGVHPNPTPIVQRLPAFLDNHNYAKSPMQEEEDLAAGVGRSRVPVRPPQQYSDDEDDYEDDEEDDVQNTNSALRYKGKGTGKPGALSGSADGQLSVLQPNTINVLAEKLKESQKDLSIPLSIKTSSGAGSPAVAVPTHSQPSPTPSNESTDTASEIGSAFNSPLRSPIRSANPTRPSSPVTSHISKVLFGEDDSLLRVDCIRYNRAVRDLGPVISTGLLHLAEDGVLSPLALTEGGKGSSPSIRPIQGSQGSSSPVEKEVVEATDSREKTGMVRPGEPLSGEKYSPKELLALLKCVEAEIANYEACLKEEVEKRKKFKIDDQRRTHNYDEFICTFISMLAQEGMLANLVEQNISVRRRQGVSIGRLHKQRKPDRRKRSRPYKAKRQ

[12] = IGROV1 ovarian cancer cell cytotoxicity, dose response, PAX8 inhibitor project, plate reader, dry powder samples (AID 743043); assay type: functional, cell-based; conditions: IGROV-1
[13] = cytotoxicity in OVCAR8 ovarian cancer cells, dose response, PAX8 project, cell-based, plate reader, dry powder samples (AID 743197); assay type: functional; conditions: OVCAR-8
[14] = NIH:OVCAR-3 ovarian cancer cell cytotoxicity, dose response, PAX8 inhibitor project, plate reader, dry powder samples (AID 743044); assay type: functional, cell-based
[15] = biological target: Paired box protein Pax-8 (Homo sapiens, UniProt Q06710); experiment: inhibitors of PAX8-driven TPO luciferase reporter, dose response, RMG-I cells, cherry-pick (AID 687027); assay type: functional, cell-based;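 note: luciferase reporter driven by Pax8 target thyroperoxidase promoter measured by SteadyGlo luminescence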
[16] = biological target: Peroxisome proliferator-activated receptor gamma/Nuclear receptor corepressor 2 (Homo sapiens, UniProt P37231+Q9Y618); experiment: Counterscreen for NR2E3 inverse agonists: TR-FRET-based biochemical high throughput dose response assay to identify inverse agonists of the interaction between peroxisome proliferator-activated receptor gamma (PPARg) and nuclear receptor co-repressor 2 (NCOR2).; assay type: functional
Sequence of Peroxisome proliferator-activated receptor gamma/Nuclear receptor corepressor 2 (P37231 whole entry): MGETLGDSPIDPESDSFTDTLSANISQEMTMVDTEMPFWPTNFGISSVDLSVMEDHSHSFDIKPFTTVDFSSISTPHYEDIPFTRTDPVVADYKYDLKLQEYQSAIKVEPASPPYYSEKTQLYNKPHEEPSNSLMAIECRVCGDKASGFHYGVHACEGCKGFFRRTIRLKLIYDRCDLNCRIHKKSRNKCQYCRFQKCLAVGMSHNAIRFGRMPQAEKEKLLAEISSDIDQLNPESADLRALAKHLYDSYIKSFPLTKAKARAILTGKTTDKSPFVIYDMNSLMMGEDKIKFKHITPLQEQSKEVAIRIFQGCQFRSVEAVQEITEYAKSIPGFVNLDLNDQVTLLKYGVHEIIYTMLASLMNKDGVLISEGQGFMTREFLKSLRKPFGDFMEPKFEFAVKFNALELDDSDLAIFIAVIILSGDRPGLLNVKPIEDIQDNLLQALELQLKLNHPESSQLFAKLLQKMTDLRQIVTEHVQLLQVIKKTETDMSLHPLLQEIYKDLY
Sequence of Peroxisome proliferator-activated receptor gamma/Nuclear receptor corepressor 2 (Q9Y618 whole entry): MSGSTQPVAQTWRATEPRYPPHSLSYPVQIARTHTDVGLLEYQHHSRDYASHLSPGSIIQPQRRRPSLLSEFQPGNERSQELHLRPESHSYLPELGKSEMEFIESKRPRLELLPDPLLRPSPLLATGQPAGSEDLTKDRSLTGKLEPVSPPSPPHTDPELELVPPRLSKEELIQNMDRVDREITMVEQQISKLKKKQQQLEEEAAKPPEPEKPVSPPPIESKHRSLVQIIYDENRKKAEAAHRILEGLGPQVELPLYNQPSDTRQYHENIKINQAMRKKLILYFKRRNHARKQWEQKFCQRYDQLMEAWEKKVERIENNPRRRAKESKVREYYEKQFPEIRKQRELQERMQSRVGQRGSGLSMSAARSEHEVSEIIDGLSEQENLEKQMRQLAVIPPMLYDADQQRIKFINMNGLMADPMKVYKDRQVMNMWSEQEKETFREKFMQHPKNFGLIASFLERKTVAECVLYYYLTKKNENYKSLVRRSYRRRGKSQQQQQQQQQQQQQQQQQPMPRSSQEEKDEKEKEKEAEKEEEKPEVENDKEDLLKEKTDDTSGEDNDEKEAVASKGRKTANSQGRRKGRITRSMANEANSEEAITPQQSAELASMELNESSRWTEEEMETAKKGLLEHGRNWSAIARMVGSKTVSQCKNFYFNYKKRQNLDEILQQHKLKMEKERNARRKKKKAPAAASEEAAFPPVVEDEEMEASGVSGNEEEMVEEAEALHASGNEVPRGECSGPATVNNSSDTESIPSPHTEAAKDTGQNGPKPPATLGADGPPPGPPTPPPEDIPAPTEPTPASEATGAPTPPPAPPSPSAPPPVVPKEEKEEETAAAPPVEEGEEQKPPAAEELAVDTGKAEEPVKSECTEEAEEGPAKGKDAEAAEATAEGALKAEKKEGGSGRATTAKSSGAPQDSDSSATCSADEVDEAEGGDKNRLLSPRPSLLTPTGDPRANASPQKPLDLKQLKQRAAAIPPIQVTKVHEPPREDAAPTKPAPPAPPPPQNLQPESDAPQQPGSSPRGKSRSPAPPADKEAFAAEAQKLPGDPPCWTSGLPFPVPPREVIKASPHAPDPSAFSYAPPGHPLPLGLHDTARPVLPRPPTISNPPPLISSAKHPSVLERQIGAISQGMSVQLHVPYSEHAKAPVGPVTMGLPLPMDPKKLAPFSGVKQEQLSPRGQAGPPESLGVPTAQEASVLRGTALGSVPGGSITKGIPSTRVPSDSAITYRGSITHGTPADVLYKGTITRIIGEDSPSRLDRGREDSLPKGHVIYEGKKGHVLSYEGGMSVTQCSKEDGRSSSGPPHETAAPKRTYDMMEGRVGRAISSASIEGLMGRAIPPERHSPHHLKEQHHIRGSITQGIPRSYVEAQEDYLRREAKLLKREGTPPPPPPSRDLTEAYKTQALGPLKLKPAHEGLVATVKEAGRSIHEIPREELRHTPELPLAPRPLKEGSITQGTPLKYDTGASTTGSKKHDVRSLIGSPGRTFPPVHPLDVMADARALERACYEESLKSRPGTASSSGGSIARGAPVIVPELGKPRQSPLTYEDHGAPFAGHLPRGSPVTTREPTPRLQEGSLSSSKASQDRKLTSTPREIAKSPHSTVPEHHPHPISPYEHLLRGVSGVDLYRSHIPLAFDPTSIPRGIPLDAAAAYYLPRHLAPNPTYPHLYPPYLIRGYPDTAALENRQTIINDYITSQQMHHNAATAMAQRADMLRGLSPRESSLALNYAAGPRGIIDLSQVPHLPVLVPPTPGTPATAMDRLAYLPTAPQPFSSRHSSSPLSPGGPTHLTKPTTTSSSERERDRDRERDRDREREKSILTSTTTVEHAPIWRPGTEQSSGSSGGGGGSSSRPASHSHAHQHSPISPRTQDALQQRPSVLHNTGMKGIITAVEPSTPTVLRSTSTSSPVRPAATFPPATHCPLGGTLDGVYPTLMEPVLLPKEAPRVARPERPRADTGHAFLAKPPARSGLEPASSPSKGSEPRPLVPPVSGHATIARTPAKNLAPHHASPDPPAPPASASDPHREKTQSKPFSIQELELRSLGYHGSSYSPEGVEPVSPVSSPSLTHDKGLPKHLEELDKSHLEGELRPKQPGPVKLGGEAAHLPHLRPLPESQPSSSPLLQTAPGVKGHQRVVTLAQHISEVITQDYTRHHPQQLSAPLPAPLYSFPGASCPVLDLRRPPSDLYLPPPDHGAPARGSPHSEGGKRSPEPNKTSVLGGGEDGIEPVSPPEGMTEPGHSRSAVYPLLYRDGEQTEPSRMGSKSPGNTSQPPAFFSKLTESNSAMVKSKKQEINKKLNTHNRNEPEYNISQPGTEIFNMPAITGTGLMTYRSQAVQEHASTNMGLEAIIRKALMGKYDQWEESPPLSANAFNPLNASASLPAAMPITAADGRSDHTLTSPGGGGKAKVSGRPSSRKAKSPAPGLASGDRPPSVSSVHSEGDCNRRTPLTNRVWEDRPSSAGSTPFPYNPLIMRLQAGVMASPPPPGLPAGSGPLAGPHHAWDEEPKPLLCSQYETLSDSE

[17] = biological target: Photoreceptor-specific nuclear receptor (Homo sapiens, UniProt Q9Y5X4); experiment: NR2E3 inverse agonists, dose response, biochemical, TR-FRET (AID 463256); assay type: functional
[18] = P. falciparum Dd2 growth inhibitors, dose response, SYBR Green, dry powder samples, set 9 (AID 1159568); assay type: functional, cell-based
[19] = A High Throughput Confirmatory Assay used to Identify Novel Compounds that Inhibit Mycobacterium Tuberculosis in the absence of Glycerol.; assay type: functional
[20] = M. tuberculosis growth inhibition, HTS (AID 449762); assay type: functional
[21] = biological target: 14-3-3 protein gamma (Homo sapiens, UniProt P61981); experiment: modulators of 14-3-3 gamma client binding – dose response (AID 711); assay type: functional
Sequence of 14-3-3 protein gamma (P61981 whole entry): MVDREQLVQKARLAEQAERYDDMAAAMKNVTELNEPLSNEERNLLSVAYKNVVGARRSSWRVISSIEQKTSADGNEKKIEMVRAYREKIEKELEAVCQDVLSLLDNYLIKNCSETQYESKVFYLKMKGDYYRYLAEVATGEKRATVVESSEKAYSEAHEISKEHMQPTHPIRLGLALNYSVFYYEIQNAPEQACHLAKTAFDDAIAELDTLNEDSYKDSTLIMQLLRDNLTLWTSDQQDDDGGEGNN

[22] = half-maximal inhibitory concentration for glucagon-like peptide-1 release, STC-1 cell line, dose-response (AID 1117345); assay type: functional, cell-based
[23] = Glucagon-like peptide 1 release potency, NCI-H716 cell line, dose-response, half-maximal inhibitory concentration (AID 1117344); assay type: functional, cell-based

Question: With `Cc1cc2[nH]c3c4ccccc4nc(C)c3c2cc1C` as the compound, how does the EC50 [1] read?
Answer: > 92.4 µM (inactive)

Question: And the AC50 [2]?
Answer: 3.57 µM (active)

Question: What about the EC50 [3] of the same compound?
Answer: > 92.4 µM (inactive)

Question: And the EC50 [4]?
Answer: > 92.4 µM (inactive)

Question: And the CC50 [5]?
Answer: 12.4 µM (active)

Question: And the IC50 [6]?
Answer: 38.9 µM (active)

Question: And the AC50 [7]?
Answer: 10.8 µM (active)

Question: And the IC50 [8]?
Answer: 15.5 µM (inactive)

Question: And the IC50 [9]?
Answer: 19 µM (inactive)

Question: What about the IC50 [10] of the same compound?
Answer: 23.6 µM (inactive)

Question: Which IC50 [11] does the source give for `Nc1c(C(O)(C(F)(F)F)C(F)(F)F)ccc2ccccc12` here?
Answer: > 50 µM (not active)

Question: Which AC50 [12] does the source give for `COc1ccc(CN(C)C[C@H]2OCCCC[C@H](C)Oc3ccc(NC(=O)Nc4ccc(C(F)(F)F)cc4)cc3C(=O)N([C@H](C)CO)C[C@H]2C)cc1` here?
Answer: 54.7 µM (active)

Question: And the AC50 [13]?
Answer: 59 µM (active)

Question: What about the AC50 [14] of the same compound?
Answer: 26.4 µM (active)

Question: What about the AC50 [15] of the same compound?
Answer: 9.16 µM (active)

Question: Which IC50 [16] does the source give for `COc1ccc(-c2oc3ncn4nc(Cc5ccccc5)nc4c3c2-c2ccc(OC)cc2)cc1` here?
Answer: 6.02 µM (active)

Question: What about the IC50 [17] of the same compound?
Answer: 7.69 µM (active)

Question: For `Cc1ccccc1-c1ccc([C@@H]2[C@H](CO)N3CCCCN(S(=O)(=O)Cc4ccccc4)C[C@@H]23)cc1`, which AC50 [18] is on record?
Answer: 0.878 µM (active)

Question: Which results are given for `CCCOc1cccc(C(=O)NC(=S)Nc2ccc(N3CCN(C)CC3)cc2)c1`?
Answer: IC50 [19]: > 100 µM (active); IC50 [20]: > 100 µM (active)

Question: Which IC50 [21] does the source give for `COCCNC(=O)C(c1ccncc1)N(C(=O)Cn1nnc2ccccc21)c1ccc(OC)cc1` (stereo not drawn) here?
Answer: 24.6 µM (active)

Question: For `NC[C@@H]1O[C@H](O[C@H]2[C@H](O)[C@H](O[C@H]3[C@@H](O)[C@H](N)C[C@H](N)[C@H]3O[C@H]3O[C@H](CN)[C@H](O)[C@H](O)[C@H]3N)O[C@@H]2CO)[C@@H](N)[C@@H](O)[C@@H]1O`, which IC50 [22] is on record?
Answer: > 40 µM (inactive)

Question: What about the IC50 [23] of the same compound?
Answer: > 40 µM (inactive)
